{"source": "paper PMC9482650", "about": "“Quantitative fragmentomics allow affinity mapping of interactomes” (Nature Communications, 2022)", "key": {"HeLa cell extract preys": {"test_system": "HeLa cell extract preys", "test": "PBM-AP-MS, PBM peptide baits", "assay_type": "binding, human", "experimental": "(§1) HEK293T and HeLa cells were authenticated and found 100% identity to ATCC cat. CRL-3216 and ATCC cat. CCL-2, respectively. Jurkat and HaCat cell lines were not authenticated (original source: ECACC and Deutsches Krebsforschungszentrum DKFZ, respectively). HeLa cells were grown in DMEM (1 g/L glucose, Gibco) medium completed with 5% FCS and 40 μg/mL gentamicin, diluted every 3rd/4th day 1/10. HaCat cells were grown in DMEM (1 g/L glucose, Gibco) medium completed with 10% FCS and 40 μg/mL gentamicin, diluted every 3rd/4th day 1/4. Jurkat cells were grown in RPMI (Gibco) medium completed with 10% FCS and 40 μg/mL gentamicin, diluted every 3rd/4th day 1/12. All cells were kept at 37 °C and 5% CO2. For proteomics analyses cells were seeded on T-175 flasks. After they reached confluency, adherent cells were washed with PBS once and collected by scraping with ice-cold lysis buffer (Hepes-KOH pH 7.5 50 mM, NaCl 150 mM, Triton X-100 1%, complete EDTA-free protease inhibitor cocktail 1×, EDTA 2 mM, TCEP 5 mM, glycerol 10%). Jurkat cells were collected by 1000 g × centrifugation, washed once with PBS, then collected by 1000 g × 5 min centrifugation again and lysed in ice-cold lysis buffer. Lysates were sonicated 4 × 20 s with 1 s long pulses on ice, then incubated rotating at 4 °C for 30 min. Lysates were centrifuged at 12,000 rpm 4 °C for 20 min and supernatant was kept for further analysis. Concentration determination was carried out by standard Bradford method (Bio-Rad Protein Assay Dye Reagent #5000006) using BSA (MP BIomedicals #160069) as control on a Bio-Rad SmartSpec 3000 spectrophotometer instrument.\n(§2) For PBM-AP-MS experiments, 30 μl streptavidin resin was mixed with biotin or peptide at 50–60 μM concentration in 6–6.5 resin volume for 60 min to achieve resin saturation. For PDZ-AP-MS experiments, 30 μl streptavidin resin was mixed with biotinylated MBP or MBP-PDZ at 40-50 μM concentration in >1000× resin volume for 60 min to achieve resin saturation. After saturation, resins were washed a single time (ten resin volume, holdup buffer), and were depleted with biotin (1 mM biotin, 5–10 resin volume, 10 min). Finally, resins were washed two times. 0.5 ml 2 mg/ml cell lysate was added to the dry resin (1 mg total input) and were incubated at 4 °C for 2 h. Then, the beads were washed three times with 10 resin volume buffer containing: 50 mM TRIS pH 8.5, 150 mM NaCl, 1% TritonX-100, 10× complete EDTA-free protease inhibitor cocktail, 2 mM EDTA, 1 mM TCEP. Then, the beads were washed two times with ten resin volume buffer containing: 50 mM TRIS pH 8.5, 150 mM NaCl, 1 mM TCEP. Finally, captured protein was eluted from the resin in two steps and the eluted fractions were pooled. For each elution the beads were incubated for 30 min with three resin volume buffer containing: 20 mM TRIS pH8.5, 100 mM NaCl, 500 μM TCEP, 8 M Urea. Between each step, the beads were separated by mild centrifugation and the supernatant was removed by gentle pipetting.\n(§3) The samples were precipitated with TCA 20% overnight at 4 °C and centrifuged at 14,000 rpm for 10 min at 4 °C. The protein pellets were washed twice with 1 mL cold acetone and air dried. The protein extracts were solubilized in urea 8 M, reduced with 5 mM TCEP for 30 min, and alkylated with 10 mM iodoacetamide for 30 min in the dark. Double digestion was performed at 37 °C with 500 ng endoproteinase Lys-C for 4 h, followed by fourfold dilution and an overnight digestion with 500 ng trypsin. Peptide mixtures were then desalted on C18 spin-column and dried on Speed-Vacuum.\n(§4) Samples were analyzed using an Ultimate 3000 nano-RSLC (Thermo Scientific, San Jose California) coupled in line with a LTQ-Orbitrap ELITE mass spectrometer via a nano-electrospray ionization source (Thermo Scientific, San Jose California). […]"}, "[1]": {"test_system": "Jurkat cell extract preys", "test": "PBM-AP-MS, PBM peptide baits", "assay_type": "binding, human", "experimental": "as §1, §2, §3, §4"}}, "note": "Ends that are not written are not given here. * marks the point of attachment. Biotin = O=C1N[C@H]2[C@H](CS[C@H]2CCCCC(=O)*)N1; ttds = NCCCOCCOCCOCCCNC(=O)CCC(=O)*", "data": [{"substance": "HPV35E6 ({Biotin-ttds}-SKPTRRETEV)", "values": [{"measurement": "Enrichment values compared to biotin controls", "setting": "HeLa cell extract preys; prey AHNAK, PBM peptide bait", "value": 0.9}, {"measurement": "Enrichment values compared to biotin controls", "setting": "HeLa cell extract preys; prey ARHGAP21, PBM peptide bait", "value": 1.3}, {"measurement": "Enrichment values compared to biotin controls", "setting": "HeLa cell extract preys; prey ARHGEF12, PBM peptide bait", "value": 1.1}, {"measurement": "Enrichment values compared to biotin controls", "setting": "HeLa cell extract preys; prey CASK, PBM peptide bait", "value": 4.9}, {"measurement": "Enrichment values compared to biotin controls", "setting": "HeLa cell extract preys; prey DLG1, PBM peptide bait", "value": 6.4}, {"measurement": "Enrichment values compared to biotin controls", "setting": "HeLa cell extract preys; prey DLG3, PBM peptide bait", "value": 5.8}, {"measurement": "Enrichment values compared to biotin controls", "setting": "HeLa cell extract preys; prey DLG5, PBM peptide bait", "value": 1.3}, {"measurement": "Enrichment values compared to biotin controls", "setting": "HeLa cell extract preys; prey DVL2, PBM peptide bait", "value": 0.8}, {"measurement": "Enrichment values compared to biotin controls", "setting": "HeLa cell extract preys; prey GOPC, PBM peptide bait", "value": 1.4}, {"measurement": "Enrichment values compared to biotin controls", "setting": "HeLa cell extract preys; prey HTRA1, PBM peptide bait", "value": 2.0}, {"measurement": "Enrichment values compared to biotin controls", "setting": "HeLa cell extract preys; prey InaDl, PBM peptide bait", "value": 1.3}, {"measurement": "Enrichment values compared to biotin controls", "setting": "HeLa cell extract preys; prey LAP2, PBM peptide bait", "value": 1.4}, {"measurement": "Enrichment values compared to biotin controls", "setting": "HeLa cell extract preys; prey LIN7C, PBM peptide bait", "value": 131.1}, {"measurement": "Enrichment values compared to biotin controls", "setting": "HeLa cell extract preys; prey LMO7, PBM peptide bait", "value": 2.0}, {"measurement": "Enrichment values compared to biotin controls", "setting": "HeLa cell extract preys; prey MPDZ, PBM peptide bait", "value": 2.5}, {"measurement": "Enrichment values compared to biotin controls", "setting": "HeLa cell extract preys; prey MPP5, PBM peptide bait", "value": 4.0}, {"measurement": "Enrichment values compared to biotin controls", "setting": "HeLa cell extract preys; prey MPP6, PBM peptide bait", "value": 1.1}, {"measurement": "Enrichment values compared to biotin controls", "setting": "HeLa cell extract preys; prey MPP7, PBM peptide bait", "value": 11.7}, {"measurement": "Enrichment values compared to biotin controls", "setting": "HeLa cell extract preys; prey NHERF2, PBM peptide bait", "value": 0.9}, {"measurement": "Enrichment values compared to biotin controls", "setting": "HeLa cell extract preys; prey NHERF3, PBM peptide bait", "value": 0.9}, {"measurement": "Enrichment values compared to biotin controls", "setting": "HeLa cell extract preys; prey PDLIM5, PBM peptide bait", "value": 0.8}, {"measurement": "Enrichment values compared to biotin controls", "setting": "HeLa cell extract preys; prey PDLIM7, PBM peptide bait", "value": 0.9}, {"measurement": "Enrichment values compared to biotin controls", "setting": "HeLa cell extract preys; prey PSMD9, PBM peptide bait", "value": 0.6}, {"measurement": "Enrichment values compared to biotin controls", "setting": "HeLa cell extract preys; prey SCRIB, PBM peptide bait", "value": 217.5}, {"measurement": "Enrichment values compared to biotin controls", "setting": "HeLa cell extract preys; prey SIPA1L1, PBM peptide bait", "value": 0.5}, {"measurement": "Enrichment values compared to biotin controls", "setting": "HeLa cell extract preys; prey SNTA1, PBM peptide bait", "value": 0.5}, {"measurement": "Enrichment values compared to biotin controls", "setting": "HeLa cell extract preys; prey SNTB1, PBM peptide bait", "value": 8.8}, {"measurement": "Enrichment values compared to biotin controls", "setting": "HeLa cell extract preys; prey SNTB2, PBM peptide bait", "value": 48.7}, {"measurement": "Enrichment values compared to biotin controls", "setting": "HeLa cell extract preys; prey SNX27, PBM peptide bait", "value": 1.4}, {"measurement": "Enrichment values compared to biotin controls", "setting": "HeLa cell extract preys; prey SYNJ2BP, PBM peptide bait", "value": 63.6}, {"measurement": "Fold changes HeLa, SYNJ2BP", "setting": "HeLa cell extract preys; prey SYNJ2BP, PBM peptide bait", "value": 63.6}, {"measurement": "Enrichment values compared to biotin controls", "setting": "HeLa cell extract preys; prey TJP1, PBM peptide bait", "value": 0.9}, {"measurement": "Enrichment values compared to biotin controls", "setting": "HeLa cell extract preys; prey TX1B3, PBM peptide bait", "value": 15.3}, {"measurement": "Enrichment values compared to biotin controls", "setting": "[1]; prey APBA1, PBM peptide bait", "value": 2.9}, {"measurement": "Enrichment values compared to biotin controls", "setting": "[1]; prey DLG4, PBM peptide bait", "value": 3.9}, {"measurement": "Enrichment values compared to biotin controls", "setting": "[1]; prey DVL2, PBM peptide bait", "value": 1.1}, {"measurement": "Enrichment values compared to biotin controls", "setting": "[1]; prey GOPC, PBM peptide bait", "value": 1.3}, {"measurement": "Enrichment values compared to biotin controls", "setting": "[1]; prey InaDl, PBM peptide bait", "value": 0.9}, {"measurement": "Enrichment values compared to biotin controls", "setting": "[1]; prey LAP2, PBM peptide bait", "value": 2.0}, {"measurement": "Enrichment values compared to biotin controls", "setting": "[1]; prey LNX2, PBM peptide bait", "value": 0.8}, {"measurement": "Enrichment values compared to biotin controls", "setting": "[1]; prey MAGI3, PBM peptide bait", "value": 3.7}, {"measurement": "Enrichment values compared to biotin controls", "setting": "[1]; prey MPP1, PBM peptide bait", "value": 1.3}, {"measurement": "Enrichment values compared to biotin controls", "setting": "[1]; prey MPP5, PBM peptide bait", "value": 1.4}, {"measurement": "Enrichment values compared to biotin controls", "setting": "[1]; prey MPP6, PBM peptide bait", "value": 1.4}, {"measurement": "Enrichment values compared to biotin controls", "setting": "[1]; prey MPP7, PBM peptide bait", "value": 2.9}, {"measurement": "Enrichment values compared to biotin controls", "setting": "[1]; prey MYO18A, PBM peptide bait", "value": 0.9}, {"measurement": "Enrichment values compared to biotin controls", "setting": "[1]; prey PDLIM2, PBM peptide bait", "value": 1.7}, {"measurement": "Enrichment values compared to biotin controls", "setting": "[1]; prey PDLIM5, PBM peptide bait", "value": 0.851}, {"measurement": "Enrichment values compared to biotin controls", "setting": "[1]; prey PDLIM7, PBM peptide bait", "value": 1.2}, {"measurement": "Enrichment values compared to biotin controls", "setting": "[1]; prey PDZD11, PBM peptide bait", "value": 1.8}, {"measurement": "Enrichment values compared to biotin controls", "setting": "[1]; prey PSMD9, PBM peptide bait", "value": 0.748}, {"measurement": "Enrichment values compared to biotin controls", "setting": "[1]; prey SIPA1L1, PBM peptide bait", "value": 1.1}, {"measurement": "Enrichment values compared to biotin controls", "setting": "[1]; prey SIPA1L2, PBM peptide bait", "value": 1.1}, {"measurement": "Enrichment values compared to biotin controls", "setting": "[1]; prey SNTB1, PBM peptide bait", "value": 5.0}, {"measurement": "Enrichment values compared to biotin controls", "setting": "[1]; prey SNTB2, PBM peptide bait", "value": 1.1}, {"measurement": "Enrichment values compared to biotin controls", "setting": "[1]; prey SNX27, PBM peptide bait", "value": 2.9}, {"measurement": "Enrichment values compared to biotin controls", "setting": "[1]; prey SYNJ2BP, PBM peptide bait", "value": 12.5}, {"measurement": "Enrichment values compared to biotin controls", "setting": "[1]; prey TX1B3, PBM peptide bait", "value": 4.1}]}]}
